In PubChem BioAssay (NCI):
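GI50 marks 50% less growth. TGI: total growth inhibition.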

Key:
Test in all cases: NCI tumour cell line growth inhibition, 384-well format
[1] = tested on: SW-620 colon
[2] = tested on: EKVX NSCLC
[3] = tested on: A498 renal
[4] = tested on: HOP-92 NSCLC
[5] = tested on: NCI-H226 lung
[6] = tested on: DU-145 prostate
[7] = tested on: K-562 leukemia
[8] = tested on: MDA-MB-435 melanoma
[9] = tested on: BT-549 breast
[10] = tested on: HOP-62 NSCLC
[11] = tested on: HCT-116 colon
[12] = tested on: SK-MEL-28 melanoma
[13] = tested on: UACC-62 melanoma

SMILES: C[C@@H]1Cc2c(ccc3[nH]ncc23)[C@@H](c2ccc(NC3CN(CCCF)C3)cn2)N1CC(F)(F)F
- GI50 [1]: 16.6 µM
- TGI [1]: 30.4 µM
- GI50 [2]: 13.8 µM
- TGI [2]: 27.7 µM
- GI50 [3]: 12.5 µM
- TGI [3]: 25 µM
- GI50 [4]: 13 µM
- TGI [4]: 25.7 µM
- GI50 [5]: 17.4 µM
- TGI [5]: 53.3 µM
- GI50 [6]: 18.5 µM
- TGI [6]: 37.7 µM
- GI50 [7]: 14.2 µM
- TGI [7]: 27.5 µM
- GI50 [8]: 16.8 µM
- TGI [8]: 30.6 µM
- GI50 [9]: 13.1 µM
- TGI [9]: 25.9 µM
- GI50 [10]: 17.6 µM
- TGI [10]: 31.4 µM
- GI50 [11]: 13.3 µM
- TGI [11]: 26.2 µM
- GI50 [12]: 16.1 µM
- TGI [12]: 29.7 µM
- GI50 [13]: 13.8 µM
- TGI [13]: 26.8 µM
